Assay results: patent US20020111274A1, “1-alkyl-3-[1-(substituted phenyl) benzotriazol-6-yl] uracils” (BASF Aktiengesellschaft, priority 2000, published 2002)

How the values were obtained:
Design in all cases: scale not given here
ECHOG Barnyardgrass [1] = experiment: Preemergence herbicidal evaluation, ECHOG; assay type: in vivo, Echinochloa crus-galli, (L.) Beau; details: preemergence
Method in brief: (§1)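 Compound applied preemergence as an aqueous acetone spray onto freshly planted cups, dose equivalent approx. 0.013 to 0.800 kg/ha. Evaluation by rating at weeks 4–5.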

ZEAMX Corn, Field [2] = experiment: Preemergence herbicidal evaluation, ZEAMX; assay type: in vivo, Zea mays, L. (Sammel-Bezeichnung); details: preemergence
Method in brief: as §1

AMBEL Ragweed, Common [3] = experiment: Preemergence herbicidal evaluation, AMBEL; assay type: in vivo, Ambrosia artemisifolia, L.; details: preemergence
Method in brief: as §1

[4] = test system: IPOHE Morningglory, Ivyleaf; experiment: Postemergence herbicidal evaluation, IPOHE; assay type: in vivo, Ipomoea hederacea, (L.) Jacq.; details: postemergence spray, rated about two-three weeks after treatment
Method in brief: (§2)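 Ratings from greenhouse plants scored about two to three weeks after a foliar spray; data from multiple tests averaged. Seedlings about two weeks old received roughly 0.006–0.400 kg/ha active compound in 80/20 acetone/water with 1.0% methylated seed oil.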

[5] = test system: CHEAL Lambsquarters, Common; experiment: Preemergence herbicidal evaluation, CHEAL; assay type: in vivo, Chenopodium album, L.; details: preemergence
Method in brief: as §1

ABUTH Velvetleaf [6] = experiment: Preemergence herbicidal evaluation, ABUTH; assay type: in vivo, Abutilon theophrasti, Medic.; details: preemergence
Method in brief: as §1

ECHOG Barnyardgrass [7] = experiment: Postemergence herbicidal evaluation, ECHOG; assay type: in vivo, Echinochloa crus-galli, (L.) Beau; details: postemergence spray, rated about two-three weeks after treatment
Method in brief: as §2

CASOB Sicklepod [8] = experiment: Preemergence herbicidal evaluation, CASOB; assay type: in vivo, Cassia obtusifolia, L.; details: preemergence
Method in brief: as §1

ORYSAT Rice, Tebonnet [9] = experiment: Postemergence herbicidal evaluation, ORYSAT; assay type: in vivo, Oryza sativa, (L.); details: postemergence spray, rated about two-three weeks after treatment
Method in brief: as §2

SETVI Foxtail, Green [10] = experiment: Preemergence herbicidal evaluation, SETVI; assay type: in vivo, Setaria viridis, (L.) Beau; details: preemergence
Method in brief: as §1

GALAP Galium [11] = experiment: Postemergence herbicidal evaluation, GALAP; assay type: in vivo, Galium aparine; details: postemergence spray, rated about two-three weeks after treatment
Method in brief: as §2

ZEAMX Corn, Field [12] = experiment: Postemergence herbicidal evaluation, ZEAMX; assay type: in vivo, Zea mays, L. (Sammel-Bezeichnung); details: postemergence spray, rated about two-three weeks after treatment
Method in brief: as §2

ORYSAT Rice, Tebonnet [13] = experiment: Preemergence herbicidal evaluation, ORYSAT; assay type: in vivo, Oryza sativa, (L.); details: preemergence
Method in brief: as §1

CASOB Sicklepod [14] = experiment: Postemergence herbicidal evaluation, CASOB; assay type: in vivo, Cassia obtusifolia, L.; details: postemergence spray, rated about two-three weeks after treatment
Method in brief: as §2

SETVI Foxtail, Green [15] = experiment: Postemergence herbicidal evaluation, SETVI; assay type: in vivo, Setaria viridis, (L.) Beau; details: postemergence spray, rated about two-three weeks after treatment
Method in brief: as §2

GALAP Galium [16] = experiment: Preemergence herbicidal evaluation, GALAP; assay type: in vivo, Galium aparine; details: preemergence
Method in brief: as §1

[17] = test system: TRZAWR Wheat, Winter, cv Riband; experiment: Preemergence herbicidal evaluation, TRZAWR; assay type: in vivo, Triticum aestivum; details: preemergence
Method in brief: as §1

ABUTH Velvetleaf [18] = experiment: Postemergence herbicidal evaluation, ABUTH; assay type: in vivo, Abutilon theophrasti, Medic.; details: postemergence spray, rated about two-three weeks after treatment
Method in brief: as §2

[19] = test system: IPOHE Morningglory, Ivyleaf; experiment: Preemergence herbicidal evaluation, IPOHE; assay type: in vivo, Ipomoea hederacea, (L.) Jacq.; details: preemergence
Method in brief: as §1

GLXMAW Soybean, Williams [20] = experiment: Postemergence herbicidal evaluation, GLXMAW; assay type: in vivo, Glycine max, (L.) Merr. cv Williams; details: postemergence spray, rated about two-three weeks after treatment
Method in brief: as §2

[21] = test system: CHEAL Lambsquarters, Common; experiment: Postemergence herbicidal evaluation, CHEAL; assay type: in vivo, Chenopodium album, L.; details: postemergence spray, rated about two-three weeks after treatment
Method in brief: as §2

GLXMAW Soybean, Williams [22] = experiment: Preemergence herbicidal evaluation, GLXMAW; assay type: in vivo, Glycine max, (L.) Merr. cv Williams; details: preemergence
Method in brief: as §1

[23] = test system: TRZAWR Wheat, Winter, cv Riband; experiment: Postemergence herbicidal evaluation, TRZAWR; assay type: in vivo, Triticum aestivum; details: postemergence spray, rated about two-three weeks after treatment
Method in brief: as §2

AMBEL Ragweed, Common [24] = experiment: Postemergence herbicidal evaluation, AMBEL; assay type: in vivo, Ambrosia artemisifolia, L.; details: postemergence spray, rated about two-three weeks after treatment
Method in brief: as §2

COCc1ccccc1-n1nnc2cc(F)c(-n3c(=O)cc(C(F)(F)F)n(C)c3=O)cc21 [Example 26]
ECHCG herbicidal rating (ECHOG Barnyardgrass [1]; rate 0.016 kg/ha): 1.0 | ECHCG herbicidal rating (ECHOG Barnyardgrass [1]; rate 0.032 kg/ha): 6.0 | ECHCG herbicidal rating (ECHOG Barnyardgrass [1]; rate 0.062 kg/ha): 7.0 | ECHCG herbicidal rating (ECHOG Barnyardgrass [1]; rate 0.125 kg/ha): 9.0 | ZEAMX herbicidal rating (ZEAMX Corn, Field [2]; rate 0.016 kg/ha): 1.0 | ZEAMX herbicidal rating (ZEAMX Corn, Field [2]; rate 0.032 kg/ha): 4.0 | ZEAMX herbicidal rating (ZEAMX Corn, Field [2]; rate 0.062 kg/ha): 7.0 | ZEAMX herbicidal rating (ZEAMX Corn, Field [2]; rate 0.125 kg/ha): 7.0 | AMBEL herbicidal rating (AMBEL Ragweed, Common [3]; rate 0.016 kg/ha): 2.0 | AMBEL herbicidal rating (AMBEL Ragweed, Common [3]; rate 0.032 kg/ha): 7.0 | AMBEL herbicidal rating (AMBEL Ragweed, Common [3]; rate 0.062 kg/ha): 7.0 | AMBEL herbicidal rating (AMBEL Ragweed, Common [3]; rate 0.125 kg/ha): 9.0 | Postemergence herbicidal rating IPOHE ([4]; 0.008 kg/ha): 4.0 | Postemergence herbicidal rating IPOHE ([4]; 0.016 kg/ha): 9.0 | Postemergence herbicidal rating IPOHE ([4]; 0.032 kg/ha): 9.0 | Postemergence herbicidal rating IPOHE ([4]; 0.062 kg/ha): 9.0 | CHEAL herbicidal rating ([5]; rate 0.032 kg/ha): 7.0 | CHEAL herbicidal rating ([5]; rate 0.062 kg/ha): 9.0 | CHEAL herbicidal rating ([5]; rate 0.125 kg/ha): 9.0 | ABUTH herbicidal rating (ABUTH Velvetleaf [6]; rate 0.016 kg/ha): 9.0 | ABUTH herbicidal rating (ABUTH Velvetleaf [6]; rate 0.032 kg/ha): 9.0 | ABUTH herbicidal rating (ABUTH Velvetleaf [6]; rate 0.062 kg/ha): 9.0 | ABUTH herbicidal rating (ABUTH Velvetleaf [6]; rate 0.125 kg/ha): 9.0 | Postemergence herbicidal rating ECHCG (ECHOG Barnyardgrass [7]; 0.008 kg/ha): 1.0 | Postemergence herbicidal rating ECHCG (ECHOG Barnyardgrass [7]; 0.016 kg/ha): 1.0 | Postemergence herbicidal rating ECHCG (ECHOG Barnyardgrass [7]; 0.032 kg/ha): 1.0 | Postemergence herbicidal rating ECHCG (ECHOG Barnyardgrass [7]; 0.062 kg/ha): 3.0 | CASOB herbicidal rating (CASOB Sicklepod [8]; rate 0.016 kg/ha): 0.0 | CASOB herbicidal rating (CASOB Sicklepod [8]; rate 0.032 kg/ha): 0.0 | CASOB herbicidal rating (CASOB Sicklepod [8]; rate 0.062 kg/ha): 7.0 | CASOB herbicidal rating (CASOB Sicklepod [8]; rate 0.125 kg/ha): 7.0 | Postemergence herbicidal rating ORYSAT (ORYSAT Rice, Tebonnet [9]; 0.008 kg/ha): 2.0 | Postemergence herbicidal rating ORYSAT (ORYSAT Rice, Tebonnet [9]; 0.016 kg/ha): 2.0 | Postemergence herbicidal rating ORYSAT (ORYSAT Rice, Tebonnet [9]; 0.032 kg/ha): 3.0 | Postemergence herbicidal rating ORYSAT (ORYSAT Rice, Tebonnet [9]; 0.062 kg/ha): 4.5 | SETVI herbicidal rating (SETVI Foxtail, Green [10]; rate 0.016 kg/ha): 2.0 | SETVI herbicidal rating (SETVI Foxtail, Green [10]; rate 0.032 kg/ha): 9.0 | SETVI herbicidal rating (SETVI Foxtail, Green [10]; rate 0.062 kg/ha): 9.0 | SETVI herbicidal rating (SETVI Foxtail, Green [10]; rate 0.125 kg/ha): 9.0 | Postemergence herbicidal rating GALAP (GALAP Galium [11]; 0.008 kg/ha): 1.0 | Postemergence herbicidal rating GALAP (GALAP Galium [11]; 0.016 kg/ha): 1.0 | Postemergence herbicidal rating GALAP (GALAP Galium [11]; 0.032 kg/ha): 2.0 | Postemergence herbicidal rating GALAP (GALAP Galium [11]; 0.062 kg/ha): 6.0 | Postemergence herbicidal rating ZEAMX (ZEAMX Corn, Field [12]; 0.008 kg/ha): 3.5 | Postemergence herbicidal rating ZEAMX (ZEAMX Corn, Field [12]; 0.016 kg/ha): 4.0 | Postemergence herbicidal rating ZEAMX (ZEAMX Corn, Field [12]; 0.032 kg/ha): 4.0 | Postemergence herbicidal rating ZEAMX (ZEAMX Corn, Field [12]; 0.062 kg/ha): 6.5 | ORYSAT herbicidal rating (ORYSAT Rice, Tebonnet [13]; rate 0.016 kg/ha): 0.0 | ORYSAT herbicidal rating (ORYSAT Rice, Tebonnet [13]; rate 0.032 kg/ha): 3.0 | ORYSAT herbicidal rating (ORYSAT Rice, Tebonnet [13]; rate 0.062 kg/ha): 5.0 | ORYSAT herbicidal rating (ORYSAT Rice, Tebonnet [13]; rate 0.125 kg/ha): 7.0 | Postemergence herbicidal rating CASOB (CASOB Sicklepod [14]; 0.008 kg/ha): 1.0 | Postemergence herbicidal rating CASOB (CASOB Sicklepod [14]; 0.016 kg/ha): 2.0 | Postemergence herbicidal rating CASOB (CASOB Sicklepod [14]; 0.032 kg/ha): 2.0 | Postemergence herbicidal rating CASOB (CASOB Sicklepod [14]; 0.062 kg/ha): 4.0 | Postemergence herbicidal rating SETVI (SETVI Foxtail, Green [15]; 0.008 kg/ha): 1.0 | Postemergence herbicidal rating SETVI (SETVI Foxtail, Green [15]; 0.016 kg/ha): 5.0 | Postemergence herbicidal rating SETVI (SETVI Foxtail, Green [15]; 0.032 kg/ha): 2.0 | Postemergence herbicidal rating SETVI (SETVI Foxtail, Green [15]; 0.062 kg/ha): 5.0 | GALAP herbicidal rating (GALAP Galium [16]; rate 0.016 kg/ha): 0.0 | GALAP herbicidal rating (GALAP Galium [16]; rate 0.032 kg/ha): 0.0 | GALAP herbicidal rating (GALAP Galium [16]; rate 0.062 kg/ha): 7.0 | GALAP herbicidal rating (GALAP Galium [16]; rate 0.125 kg/ha): 8.0 | TRZAWR herbicidal rating ([17]; rate 0.016 kg/ha): 0.0 | TRZAWR herbicidal rating ([17]; rate 0.062 kg/ha): 6.0 | TRZAWR herbicidal rating ([17]; rate 0.125 kg/ha): 8.0 | Postemergence herbicidal rating ABUTH (ABUTH Velvetleaf [18]; 0.008 kg/ha): 9.0 | Postemergence herbicidal rating ABUTH (ABUTH Velvetleaf [18]; 0.016 kg/ha): 9.0 | Postemergence herbicidal rating ABUTH (ABUTH Velvetleaf [18]; 0.032 kg/ha): 9.0 | Postemergence herbicidal rating ABUTH (ABUTH Velvetleaf [18]; 0.062 kg/ha): 9.0 | IPOHE herbicidal rating ([19]; rate 0.016 kg/ha): 0.0 | IPOHE herbicidal rating ([19]; rate 0.032 kg/ha): 9.0 | IPOHE herbicidal rating ([19]; rate 0.062 kg/ha): 6.0 | IPOHE herbicidal rating ([19]; rate 0.125 kg/ha): 9.0 | Postemergence herbicidal rating GLXMAW (GLXMAW Soybean, Williams [20]; 0.008 kg/ha): 4.5 | Postemergence herbicidal rating GLXMAW (GLXMAW Soybean, Williams [20]; 0.016 kg/ha): 5.0 | Postemergence herbicidal rating GLXMAW (GLXMAW Soybean, Williams [20]; 0.032 kg/ha): 5.5 | Postemergence herbicidal rating GLXMAW (GLXMAW Soybean, Williams [20]; 0.062 kg/ha): 9.0 | Postemergence herbicidal rating CHEAL ([21]; 0.008 kg/ha): 2.0 | Postemergence herbicidal rating CHEAL ([21]; 0.016 kg/ha): 7.0 | Postemergence herbicidal rating CHEAL ([21]; 0.032 kg/ha): 9.0 | GLXMAW herbicidal rating (GLXMAW Soybean, Williams [22]; rate 0.016 kg/ha): 1.0 | GLXMAW herbicidal rating (GLXMAW Soybean, Williams [22]; rate 0.032 kg/ha): 2.0 | GLXMAW herbicidal rating (GLXMAW Soybean, Williams [22]; rate 0.062 kg/ha): 9.0 | GLXMAW herbicidal rating (GLXMAW Soybean, Williams [22]; rate 0.125 kg/ha): 5.0 | Postemergence herbicidal rating TRZAWR ([23]; 0.008 kg/ha): 2.0 | Postemergence herbicidal rating TRZAWR ([23]; 0.016 kg/ha): 2.5 | Postemergence herbicidal rating TRZAWR ([23]; 0.032 kg/ha): 3.0 | Postemergence herbicidal rating TRZAWR ([23]; 0.062 kg/ha): 4.0 | Postemergence herbicidal rating AMBEL (AMBEL Ragweed, Common [24]; 0.008 kg/ha): 4.0 | Postemergence herbicidal rating AMBEL (AMBEL Ragweed, Common [24]; 0.016 kg/ha): 6.0 | Postemergence herbicidal rating AMBEL (AMBEL Ragweed, Common [24]; 0.032 kg/ha): 7.0 | Postemergence herbicidal rating AMBEL (AMBEL Ragweed, Common [24]; 0.062 kg/ha): 9.0
